Like-named read-outs stand apart in the source and are kept apart here.
Tested on: OR6 cells harboring full-length genotype 1b HCV replicon ORN/C-5B/KE (HCV RNA replication)
Experiment: microbe, parasite or virus in culture
Type: cell-based, Hepatitis C virus (strain HCV—O
Conditions: 48 hours; for antiviral activity (in words): OR6 full-length replicon
From the text: (§1) HCV Replicon System-Secondary Assays. For validation, OR6 cells stably harboring the full-length genotype 1 replicon, ORN/C-5B/KE9 were used to examine compound activity in a more authentic viral polyprotein context. This replicon was derived from the 1B-2 strain (strain HCV—O, genotype 1b), in which the Renilla luciferase gene is introduced as a fusion protein with neomycin to facilitate the monitoring of HCV replication. This construct contains a tissue culture adaptive mutation in the NS3 region. Cells were cultured in an identical manner to the Huh7/Rep-Feo cells.
Secondary Assays-Hit Validation. Several hits from primary HTS, as well as functionally related compounds, were purchased from Sigma (St. Louis, Mo.), Calbiochem (San Diego, Calif.), and Microsource (Gaylordsville, Conn.). […] Ten mM of stock solutions of the individual compounds to be tested was prepared in the appropriate solvent (DMSO, ethanol, or H2O, according to the manufacturer's information) and stored at −20° C. Cells were seeded into 96-well plates at a density of 2000 cells/well in 100 μL of medium. The cells were incubated for 24 hours at 37° C. to obtain the optimal level of adherence. Solutions of candidate hit compounds were added to wells to achieve final concentrations of 0.1, 1, 10, 50, and 100 μM. The final concentration of DMSO or ethanol in every well was 1% or less by volume. Mock solutions were used as a negative control. PEG-IFN and ribavirin were used as positive controls at various concentrations, alone and in combination. The plates were then incubated at 37° C. with 5% CO2 for 48 hours before they were analyzed. Luminescent signal was generated using the Renilla luciferase assay kit (Promega) according to the manufacturer's instructions. Signal was then detected using a LumiCount (Packard BioScience Company) luminometer. Cell viability was assessed using CellTiter-Glo (Promega), following the manufacturer's instructions. All experiments were performed in triplicate.
Secondary Assays-Data Analysis. Values were presented as a percentage of mock treated control, which was arbitrarily set at 100%. Data were expressed as the mean (±) SD. […] Synergy calculations were performed using CalcuSyn (Biosoft; Cambridge, England).
as §1, with “System—Secondary Assays:” for “System-Secondary Assays.”, “For replicon” for “For”, “ORN/C-5B/KE” for “ORN/C-5B/KE9”, “(Burke J. Am. Chem. Soc. (2004) 126:14095-14104).” for “to examine compound activity in a more authentic viral polyprotein context.”, “the Neomycin resistance cassette” for “neomycin”
Secondary Assays—Hit Validation: 10 mM of stock solutions of the individual compounds to be tested were prepared in DMSO and stored at −20° C. Cells were seeded into 96-well plates at a density of 2,000 cells/well in 100 μl of medium. The cells were incubated for 24 hours at 37° C. to obtain the optimal level of adherence. Solutions of candidate hit compounds were added to wells to achieve varying final concentrations between 0.01 and 100 μM. The final concentration of DMSO or ethanol in every well was 1% or less by volume. Mock solutions were used as a negative control. Peginterferon-alfa-2b (PEG-Intron; Schering Corp.; Kenilworth, N.J.) and ribavirin (Sigma; St. Louis, Mo.) were used as positive controls at various concentrations, alone and in combination. The plates were then incubated at 37° C. with 5% CO2 for 48 hours before they were analyzed. Luminescent signal was generated using the Renilla luciferase assay kit (Promega; Madison, Wis.) according to the manufacturer's instructions. Signal was then detected using a LumiCount™ (Packard BioScience Company; Downers Grove, Ill.) luminometer.

[1] = Hepatitis C virus, OR6, 48 h, read-out: IC50 (HCV RNA replication, luciferase), OR6 full-length genotype 1b replicon

Row | Structure (SMILES) | IC50 [1] [nM] | IC50 (read-out: IC50 (HCV RNA replication, luciferase), OR6 full-length genotype 1b replicon) [nM] | antiviral activity (in words)
1 | CC(=O)OC[C@H]1O[C@H](CCO/N=C2/[C@H]3CCn4c(=O)n(-c5ccccc5)c(=O)n4[C@H]3[C@H](O)[C@@H]3O[C@H]23)C=C[C@@H]1OC(C)=O [BUCMLD-B10A3] | > 500 | < 1000 | 
2 | Cc1cc2c(nc1C)CCCN2CC(C)O/N=C1/[C@H]2CCn3c(=O)n(-c4ccccc4)c(=O)n3[C@H]2[C@H](O)[C@@H]2O[C@H]12 (some centres unmarked) [BUCMLD-B10A5] | ~1000 |  | 
3 | Cc1cc(C)c(-c2cc([C@H](C)O/N=C3/[C@H]4CCn5c(=O)n(-c6ccccc6)c(=O)n5[C@H]4[C@H](O)[C@@H]4O[C@H]34)on2)c(C)c1 [BUCMLD-B10A11] | < 500 |  | 
4 | O=C1C2C=C(I)C(CC2OCCCCO)[C@@]12CO2 (some centres unmarked) [SM_A5B3_2P141] | 10000 to 50000 |  | modest antiviral activity
5 | O=C1C2(CO)C=C(Br)C(CC2c2ccccc2)[C@@]12CO2 (some centres unmarked) [SM_A6B5_2P100] | ~7000 |  | 
6 | COc1cc2c(cc1OC)-c1c/c(=N\c3c(C)cc(C)cc3C)n(C)c(=O)n1CC2 [trequinsin, reference compound] |  |  | antiviral activity at the lower concentrations of 1 and 10 μM

Source: patent publication US20120094939A1, “ANTI-VIRAL COMPOUNDS, COMPOSITIONS AND METHODS” (priority 2007, published 2012)
